# Where two headings read alike, the source gives them in different places.
# Tests used:
# E. coli strain no 5 = assay: MIC; type: cell-based; conditions: Escherichia coli, NO5, read-out: MIC of AZT
# K. pneumoniae EN011 = assay: MIC; type: cell-based, Klebsiella pneumoniae; conditions: Klebsiella pneumoniae, EN011, K. pneumoniae EN011
# S. aureus strain no 13 = assay: MIC; conditions: Staphylococcus aureus, NO13, read-out: MIC of AZT
# E. coli EN013 = assay: MIC; type: cell-based, Escherichia coli; conditions: Escherichia coli, EN013, E. coli EN013
# E. coli ATCC 25922 = assay: MIC, in vitro sensitivity of the strain used in vivo; conditions: Escherichia coli, ATCC25922, read-out: MIC against E. coli ATCC 25922
# [1] = system: P. aeruginosa strain no 10; assay: MIC; type: cell-based, Pseudomonas aeruginosa; conditions: for MIC of AZT: P. aeruginosa strain no 10
# P. aeruginosa EN0004 = assay: MIC; type: cell-based
# A. baumannii strain no 3 = assay: MIC; type: cell-based, Acinetobacter baumannii; conditions: for MIC of AZT: A. baumannii strain no 3
# E. coli strain no 2 = assay: MIC; conditions: Escherichia coli
# A. baumannii EN0007 = assay: MIC; type: cell-based, A. baumanii
# S. typhimurium EN0466 = assay: MIC; type: cell-based, Salmonella typhimurium; conditions: in FdUrd+trimethoprim+uridine combination
# E. coli EN002 = assay: MIC; type: cell-based, Escherichia coli; conditions: Combination 1 (AZT+trimethoprim+uridine)
# P. aeruginosa EN015 = assay: MIC; type: cell-based, Pseudomonas aeruginosa; conditions: Pseudomonas aeruginosa, EN015, P. aeruginosa EN015
# S. flexneri APV00906 = assay: MIC; type: cell-based; conditions: S. flexneri APV00906; in FdUrd+trimethoprim+uridine combination
# K. pneumoniae EN0436 = assay: MIC; type: cell-based; conditions: in AZT+trimethoprim+uridine combination
# K. pneumoniae EN0437 = assay: MIC; type: cell-based
# [2] = system: Helicobacter pylori ATTC43504; assay: MIC; type: cell-based; conditions: in AZT+trimethoprim+uridine combination
# Description: (§1) Inhibition of Heliobacter is important in view of increasing resistance and its association to gastric cancer.
# [3] = system: Helicobacter pylori APV00918; assay: MIC; type: cell-based; conditions: in FdUrd+trimethoprim+uridine combination
# Description: as §1
# E. coli EN0138 = assay: MIC; type: cell-based; conditions: in AZT+trimethoprim+uridine combination
# K. pneumoniae EN0143 = assay: MIC; type: cell-based
# S. flexneri APV00907 = assay: MIC; type: cell-based; conditions: S. flexneri APV00907
# E. coli EN0136 = assay: MIC; type: cell-based; conditions: in AZT+trimethoprim+uridine combination
# S. sonnei APV00908 = assay: MIC; type: cell-based; conditions: S. sonnei APV00908
# [4] = in vivo; cited from earlier work
# K. pneumoniae EN0142 = assay: MIC; type: cell-based; conditions: in AZT+trimethoprim+uridine combination
# E. coli EN001 = assay: MIC; type: cell-based, Escherichia coli
# K. oxytoca EN0392 = assay: MIC; type: cell-based, Klebsiella oxytoca; conditions: in FdUrd+trimethoprim+uridine combination
# E. coli EN0001 = assay: MIC; type: cell-based; conditions: in AZT+trimethoprim+uridine combination
# K. pneumoniae EN0401 = assay: MIC; type: cell-based
# E. coli EN0135 = assay: MIC; type: cell-based; conditions: in AZT+trimethoprim+uridine combination
# [5] = Combination 1 (AZT+trimethoprim+uridine)
# [6] = Combination 2 (same mixed with thymidine)
# [7] = in AZT+trimethoprim+uridine combination
# [8] = in FdUrd+trimethoprim+uridine combination
# [9] = in didanosine+trimethoprim+uridine combination
structure (smiles),measurement,setting,value
"Cc1cn([C@H]2C[C@H](N=[N+]=[N-])[C@@H](CO)O2)c(=O)[nH]c1=O [AZT, 3′-azido-3′-deoxythymidine]",MIC,E. coli strain no 5,4 to 8 µg/mL
same,MIC,K. pneumoniae EN011; [5],0.032 µg/mL
same,MIC,S. aureus strain no 13,> 150 µg/mL
same,MIC,E. coli EN013; [5],< 0.008 µg/mL
same,MIC,E. coli EN013; [6],< 0.008 µg/mL
same,MIC,E. coli EN013; [7],< 0.008 µg/mL
same,MIC,E. coli ATCC 25922,> 2 µg/mL
same,MIC of AZT,[1]; uridine 10 μg/ml,>150 µg/mL
same,MIC of AZT,[1]; uridine 50 μg/ml,>150 µg/mL
same,MIC of AZT,[1]; uridine 100 μg/ml,>150 µg/mL
same,MIC of AZT,[1]; uridine 200 μg/ml,>150 µg/mL
same,MIC,"[1]; Pseudomonas aeruginosa, NO10, read-out: MIC of AZT",> 150 µg/mL
same,log diff peritoneum vs start of treatment,E. coli; AZT 30 mg/kg,0.38
same,mean log peritoneum,E. coli; AZT 30 mg/kg,5.68
same,score at sampling,"E. coli; AZT 30 mg/kg, single mice",1
same,inhibition in mice infected with E. coli,E. coli; murine peritonitis model,slight inhibition
same,MIC,P. aeruginosa EN0004; [7],>4 µg/mL
same,MIC of AZT,A. baumannii strain no 3; uridine 10 μg/ml,>150 µg/mL
same,MIC of AZT,A. baumannii strain no 3; uridine 50 μg/ml,>150 µg/mL
same,MIC of AZT,A. baumannii strain no 3; uridine 100 μg/ml,>150 µg/mL
same,MIC of AZT,A. baumannii strain no 3; uridine 200 μg/ml,>150 µg/mL
same,MIC,"A. baumannii strain no 3; Acinetobacter baumannii, NO3, read-out: MIC of AZT",> 150 µg/mL
same,MIC,"E. coli strain no 2; NO2, E. coli strain 2, 5 uM thymidine, uridine 0 μg/ml",> 30 µg/mL
same,MIC,"E. coli strain no 2; NO2, E. coli strain 2, 5 uM thymidine, uridine 10 μg/ml",25 to 30 µg/mL
same,MIC,"E. coli strain no 2; NO2, E. coli strain 2, 5 uM thymidine, uridine 100 μg/ml",10 to 20 µg/mL
same,MIC,"E. coli strain no 2; NO2, read-out: MIC AZT, E. coli strain 2, thymidine 0 μM, uridine 0",20 to 30 µg/mL
same,MIC,"E. coli strain no 2; NO2, read-out: MIC AZT, E. coli strain 2, thymidine 0 μM, uridine 100 μg/ml",5 to 10 µg/mL
same,MIC,"E. coli strain no 2; NO2, read-out: MIC AZT, E. coli strain 2, thymidine 10 μM, uridine 0",> 30 µg/mL
same,MIC,"E. coli strain no 2; NO2, read-out: MIC AZT, E. coli strain 2, thymidine 10 μM, uridine 100 μg/ml",> 30 µg/mL
same,MIC,"E. coli strain no 2; NO2, read-out: MIC AZT, E. coli strain 2, thymidine 10 μM, uridine 100 and trimethoprim 1 μg/ml",0.1 to 0.5 µg/mL
same,MIC,"E. coli strain no 2; NO2, read-out: MIC AZT, E. coli strain 2, thymidine 30 μM, uridine 0",> 30 µg/mL
same,MIC,"E. coli strain no 2; NO2, read-out: MIC AZT, E. coli strain 2, thymidine 30 μM, uridine 100 μg/ml",> 30 µg/mL
same,MIC,"E. coli strain no 2; NO2, read-out: MIC of AZT, E. coli strain no 2, trimethoprim 0.5 μg/ml, uridine 0 μg/ml",0.012 to 0.025 µg/mL
same,MIC,"E. coli strain no 2; NO2, read-out: MIC of AZT, E. coli strain no 2, trimethoprim 0.5 μg/ml, uridine 1 μg/ml",≤ 0.006 µg/mL
same,MIC,"E. coli strain no 2; NO2, read-out: MIC of AZT, E. coli strain no 2, trimethoprim 0.5 μg/ml, uridine 10 μg/ml",0.05 to 0.1 µg/mL
same,MIC,"E. coli strain no 2; NO2, read-out: MIC of AZT, E. coli strain no 2, trimethoprim 0.5 μg/ml, uridine 100 μg/ml",0.025 to 0.05 µg/mL
same,MIC,"E. coli strain no 2; NO2, read-out: MIC of AZT, E. coli strain no 2, trimethoprim 0.5 μg/ml, uridine 200 μg/ml",0.012 to 0.025 µg/mL
same,MIC,"E. coli strain no 2; NO2, read-out: MIC of AZT, E. coli strain no 2, trimethoprim 1 μg/ml, uridine 0 μg/ml",0.012 to 0.025 µg/mL
same,MIC,"E. coli strain no 2; NO2, read-out: MIC of AZT, E. coli strain no 2, trimethoprim 1 μg/ml, uridine 1 μg/ml",≤ 0.006 µg/mL
same,MIC,"E. coli strain no 2; NO2, read-out: MIC of AZT, E. coli strain no 2, trimethoprim 1 μg/ml, uridine 10 μg/ml",≤ 0.006 µg/mL
same,MIC,"E. coli strain no 2; NO2, read-out: MIC of AZT, E. coli strain no 2, trimethoprim 1 μg/ml, uridine 100 μg/ml",0.025 to 0.05 µg/mL
same,MIC,"E. coli strain no 2; NO2, read-out: MIC of AZT, E. coli strain no 2, trimethoprim 1 μg/ml, uridine 200 μg/ml",0.012 to 0.025 µg/mL
same,MIC,"E. coli strain no 2; NO2, read-out: MIC of AZT, E. coli strain no 2, trimethoprim 2 μg/ml, uridine 0 μg/ml",0.006 to 0.012 µg/mL
same,MIC,"E. coli strain no 2; NO2, read-out: MIC of AZT, E. coli strain no 2, trimethoprim 2 μg/ml, uridine 1 μg/ml",≤ 0.006 µg/mL
same,MIC,"E. coli strain no 2; NO2, read-out: MIC of AZT, E. coli strain no 2, trimethoprim 2 μg/ml, uridine 10 μg/ml",≤ 0.006 µg/mL
same,MIC,"E. coli strain no 2; NO2, read-out: MIC of AZT, E. coli strain no 2, trimethoprim 2 μg/ml, uridine 100 μg/ml",0.012 to 0.025 µg/mL
same,MIC,"E. coli strain no 2; NO2, read-out: MIC of AZT, E. coli strain no 2, trimethoprim 2 μg/ml, uridine 200 μg/ml",0.006 to 0.012 µg/mL
same,MIC,"E. coli strain no 2; NO2, read-out: MIC of AZT, E. coli strain no 2, uridine 0 μg/ml",20 to 25 µg/mL
same,MIC,"E. coli strain no 2; NO2, read-out: MIC of AZT, E. coli strain no 2, uridine 10 μg/ml",20 to 25 µg/mL
same,MIC,"E. coli strain no 2; NO2, read-out: MIC of AZT, E. coli strain no 2, uridine 50 μg/ml",15 to 20 µg/mL
same,MIC,"E. coli strain no 2; NO2, read-out: MIC of AZT, E. coli strain no 2, uridine 100 μg/ml",5 to 15 µg/mL
same,MIC,"E. coli strain no 2; NO2, read-out: MIC of AZT, E. coli strain no 2, uridine 200 μg/ml",5 to 15 µg/mL
same,MIC,"E. coli strain no 2; NO2, read-out: MIC of AZT, Table 3, E. coli strain no 2, trimethoprim 0, uridine 0 μg/ml",20 to 25 µg/mL
same,MIC,"E. coli strain no 2; NO2, read-out: MIC of AZT, Table 3, E. coli strain no 2, trimethoprim 0, uridine 1 μg/ml",10 to 20 µg/mL
same,MIC,"E. coli strain no 2; NO2, read-out: MIC of AZT, Table 3, E. coli strain no 2, trimethoprim 0, uridine 10 μg/ml",10 to 20 µg/mL
same,MIC,"E. coli strain no 2; NO2, read-out: MIC of AZT, Table 3, E. coli strain no 2, trimethoprim 0, uridine 100 μg/ml",2 to 10 µg/mL
same,MIC,"E. coli strain no 2; NO2, read-out: MIC of AZT, Table 3, E. coli strain no 2, trimethoprim 0, uridine 200 μg/ml",2 to 10 µg/mL
same,MIC,A. baumannii EN0007; [7],>4 µg/mL
"O=c1ccn([C@@H]2O[C@H](CO)[C@@H](O)[C@H]2O)c(=O)[nH]1 [Uridine, uridine]",MIC,S. typhimurium EN0466,13 µg/mL
same,MIC,E. coli EN002,1.6 µg/mL
same,MIC,P. aeruginosa EN015; [5],200 µg/mL
same,MIC,P. aeruginosa EN015; [6],200 µg/mL
same,MIC,P. aeruginosa EN015; [7],500 µg/mL
same,MIC,S. flexneri APV00906,>400 µg/mL
same,MIC,K. pneumoniae EN0436,13 µg/mL
same,MIC,K. pneumoniae EN0437; [8],>400 µg/mL
same,MIC,K. pneumoniae EN0437; [9],>400 µg/mL
same,MIC,K. pneumoniae EN011; [5],3.2 µg/mL
same,MIC,K. pneumoniae EN011; [7],30 µg/mL
same,MIC,K. pneumoniae EN011; [8],6 µg/mL
same,MIC,K. pneumoniae EN011; [9],13 µg/mL
same,MIC,[2],13 µg/mL
same,MIC,[3],6 µg/mL
same,MIC,E. coli EN0138,1.6 µg/mL
same,MIC,K. pneumoniae EN0143; [8],>400 µg/mL
same,MIC,K. pneumoniae EN0143; [9],>400 µg/mL
same,MIC,S. flexneri APV00907; [7],200 µg/mL
same,MIC,S. flexneri APV00907; [8],>400 µg/mL
same,MIC,E. coli EN0136,13 µg/mL
same,MIC,E. coli EN013; [5],< 0.8 µg/mL
same,MIC,E. coli EN013; [6],< 0.8 µg/mL
same,MIC,E. coli EN013; [7],< 2 µg/mL
same,MIC,E. coli EN013; [8],1.6 µg/mL
same,MIC,E. coli EN013; [9],1.6 µg/mL
same,MIC,S. sonnei APV00908; [7],3 µg/mL
same,MIC,S. sonnei APV00908; [8],>400 µg/mL
same,oral bioavailability,[4],7-8%
same,MIC,P. aeruginosa EN0004; [7],>400 µg/mL
same,MIC,P. aeruginosa EN0004; [8],>400 µg/mL
same,MIC,P. aeruginosa EN0004; [9],>400 µg/mL
same,MIC,K. pneumoniae EN0142,13 µg/mL
same,MIC,E. coli EN001; [8],13 µg/mL
same,MIC,E. coli EN001; [9],13 µg/mL
same,MIC,K. oxytoca EN0392,13 µg/mL
same,MIC,A. baumannii EN0007; [7],>400 µg/mL
same,MIC,A. baumannii EN0007; [8],>400 µg/mL
same,MIC,A. baumannii EN0007; [9],>400 µg/mL
same,MIC,E. coli EN0001,13 µg/mL
same,MIC,K. pneumoniae EN0401; [8],>400 µg/mL
same,MIC,K. pneumoniae EN0401; [9],>400 µg/mL
same,MIC,E. coli EN0135,13 µg/mL

# Reference: US10828316B2, “Method of treating bacterial infections” (priority 2016, dated 2020)
